In ChEMBL document CHEMBL5036347, “Design of the naphthyl-diarylpyrimidines as potent non-nucleoside reverse transcriptase inhibitors (NNRTIs) via structure-based extension into the entrance channel” (Eur J Med Chem, 2021):

Columns and labels:
[1] = tested on: Human immunodeficiency virus 1; experiment: Anti-HIV activity against HIV-1 IIIB infected in human MT4 cells assessed as reduction in virus-induced cytopathic effect incubated for 5 days by MTT assay; type: functional, organism-based; conditions: Human immunodeficiency virus 1, IIIB, MT4, 120 h
[2] = tested on: Human immunodeficiency virus 2; experiment: Anti-HIV activity against HIV2 ROD infected in human MT4 cells assessed as reduction in virus-induced cytopathic effect incubated for 5 days by MTT assay; type: functional, organism-based; conditions: Human immunodeficiency virus 2, ROD, MT4, 120 h
[3] = Cytotoxicity against human MT4 cells assessed as reduction in cell viability incubated for 5 days by MTT assay; type: cell-based; conditions: human, MT4 cells; time 5 day
[4] = tested on: Human immunodeficiency virus 1; experiment: Antiviral activity against HIV1 harboring reverse transcriptase L100I mutant infected in human MT4 cells assessed as protection against virus-induced cytopathic effect incubated for 5 days by MTT assay; type: functional, organism-based; conditions: Human immunodeficiency virus 1, MT4, 120 h
[5] = tested on: Human immunodeficiency virus 1; experiment: Antiviral activity against HIV1 harboring reverse transcriptase K103N mutant infected in human MT4 cells assessed as protection against virus-induced cytopathic effect incubated for 5 days by MTT assay; type: functional, organism-based; conditions: Human immunodeficiency virus 1, MT4, 120 h
[6] = tested on: Human immunodeficiency virus 1; experiment: Antiviral activity against HIV1 harboring reverse transcriptase Y181C mutant infected in human MT4 cells assessed as protection against virus-induced cytopathic effect incubated for 5 days by MTT assay; type: functional, organism-based; conditions: Human immunodeficiency virus 1, MT4, 120 h
[7] = tested on: Human immunodeficiency virus 1; experiment: Antiviral activity against HIV1 harboring reverse transcriptase Y188L mutant infected in human MT4 cells assessed as protection against virus-induced cytopathic effect incubated for 5 days by MTT assay; type: functional, organism-based; conditions: Human immunodeficiency virus 1, MT4, 120 h
[8] = tested on: Human immunodeficiency virus 1; experiment: Antiviral activity against HIV1 harboring reverse transcriptase E138K mutant infected in human MT4 cells assessed as protection against virus-induced cytopathic effect incubated for 5 days by MTT assay; type: functional, organism-based; conditions: Human immunodeficiency virus 1, MT4, 120 h
[9] = tested on: Human immunodeficiency virus 1; experiment: Antiviral activity against HIV1 harboring reverse transcriptase F227L/V106A mutant infected in human MT4 cells assessed as protection against virus-induced cytopathic effect incubated for 5 days by MTT assay; type: functional, organism-based; conditions: Human immunodeficiency virus 1, MT4, 120 h
[10] = Resistance fold, ratio of EC50 for HIV1 harboring reverse transcriptase Y181C mutant […] to EC50 for wild type HIV1 […]; type: functional
[11] = Resistance fold, ratio of EC50 for HIV1 harboring reverse transcriptase L100I mutant […] to EC50 for wild type HIV1 […]; type: functional
[12] = Resistance fold, ratio of EC50 for HIV1 harboring reverse transcriptase K103N mutant […] to EC50 for wild type HIV1 […]; type: functional
[13] = tested on: Human immunodeficiency virus 1; experiment: Antiviral activity against HIV1 harboring reverse transcriptase K103N/Y181C double mutant infected in human MT4 cells assessed as protection against virus-induced cytopathic effect incubated for 5 days by MTT assay; type: functional, organism-based; conditions: Human immunodeficiency virus 1, MT4, 120 h
[14] = Selectivity index, ratio of CC50 for cytotoxicity against human MT4 cells to EC50 of Anti-HIV activity against HIV-1 IIIB infected in human MT4; type: toxicity, cell-based; conditions: read-out: Selectivity Index
[15] = Resistance fold, ratio of EC50 for HIV1 harboring reverse transcriptase Y188L mutant […] to EC50 for wild type HIV1 […]; type: functional
[16] = Resistance fold, ratio of EC50 for HIV1 harboring reverse transcriptase E138K mutant […] to EC50 for wild type HIV1 […]; type: functional
[17] = Resistance fold, ratio of EC50 for HIV1 harboring reverse transcriptase F227L/V106A double mutant […] to EC50 for wild type HIV1 […]; type: functional
[18] = Resistance fold, ratio of EC50 for HIV1 harboring reverse transcriptase K103N/Y181C double mutant […] to EC50 for wild type HIV1 […]; type: functional
[19] = biological target: Human immunodeficiency virus type 1 reverse transcriptase (Human immunodeficiency virus 1, UniProt Q72547); experiment: Inhibition of wild type HIV1 reverse transcriptase using oligo(dT)16 as primer measured after 40 mins by picogreen-dye based spectrofluorimetric analysis

Row | SMILES | EC50 [1] [µM] | EC50 [2] [µM] | CC50 at 120 h [3] [µM] | EC50 [4] [µM] | EC50 [5] [µM] | EC50 [6] [µM] | EC50 [7] [µM] | EC50 [8] [µM] | EC50 [9] [µM] | Ratio EC50 [10] | Ratio EC50 [11] | Ratio EC50 [12] | EC50 [13] [µM] | selectivity ratio [14] | Ratio EC50 [15] | Ratio EC50 [16] | Ratio EC50 [17] | Ratio EC50 [18] | IC50 [19] [µM] | further results
1 | CCCC(C)Nc1cc(Oc2c(OC)cc3cc(C#N)ccc3c2OC)nc(Nc2ccc(C#N)cc2)n1 (centres undefined) | 0.078 | > 1000 | > 125 | 2.17 | 0.064 | 0.66 | 10.9 | 0.25 | > 1000 | 8 | 28 | 1 | 8.77 | > 3140 | 139 | 3 | >12771 | 112 | 0.4 | –
2 | CCCNc1cc(Oc2c(OC)cc3cc(C#N)ccc3c2OC)nc(Nc2ccc(C#N)cc2)n1 | 0.017 | > 1000 | > 125 | 0.47 | 0.016 | 0.18 | 1.15 | 0.046 | 65.1 | 11 | 28 | 1 | 1.27 | > 15700 | 68 | 3 | 3827 | 75 | 0.11 | –
3 | COc1cc2cc(C#N)ccc2c(OC)c1Oc1cc(NC2CCCC2)nc(Nc2ccc(C#N)cc2)n1 | – | > 1000 | > 125 | – | 0.055 | 0.53 | 7.53 | 0.23 | 131 | 11 | 77 | 1 | 6.6 | > 5170 | 158 | 5 | 2742 | 138 | 0.21 | IC50 [1]: 0.048 µM; IC50 [4]: 3.69 µM
4 | COc1cc2cc(C#N)ccc2c(OC)c1Oc1cc(NC2CCOC2)nc(Nc2ccc(C#N)cc2)n1 (centres undefined) | 0.013 | > 1000 | > 125 | 0.23 | 0.028 | 0.085 | 0.56 | 0.047 | 2.01 | 7 | 19 | 1 | 0.64 | > 19000 | 43 | 2 | 156 | 49 | 0.18 | –
5 | COc1cc2cc(C#N)ccc2c(OC)c1Oc1cc(NCC(C)C)nc(Nc2ccc(C#N)cc2)n1 | 0.035 | > 1000 | > 125 | 127 | 0.11 | 43.6 | 13.3 | 0.13 | > 1000 | 1253 | 3646 | 3 | > 1000 | > 7250 | 383 | 4 | >28736 | >28736 | 0.25 | –
6 | COc1cc2cc(C#N)ccc2c(OC)c1Oc1cc(NCC(F)(F)F)nc(Nc2ccc(C#N)cc2)n1 | 0.035 | 186 | > 125 | 0.49 | 0.04 | 0.36 | 1.8 | – | 5.91 | 10 | 14 | 1 | 2.52 | > 6820 | 51 | 2 | 168 | 71 | 0.14 | IC50 [8]: 0.073 µM
